{"source": "patent US11447487B2", "about": "“Spiroheptanyl hydantoins as rock inhibitors” (BRISTOL-MYERS SQUIBB COMPANY, priority 2017, dated 2022)"}
{"biological_target": "ROCK2 (Homo sapiens (Human), UniProt O75116)", "sequence (O75116 whole entry, species assumed)": "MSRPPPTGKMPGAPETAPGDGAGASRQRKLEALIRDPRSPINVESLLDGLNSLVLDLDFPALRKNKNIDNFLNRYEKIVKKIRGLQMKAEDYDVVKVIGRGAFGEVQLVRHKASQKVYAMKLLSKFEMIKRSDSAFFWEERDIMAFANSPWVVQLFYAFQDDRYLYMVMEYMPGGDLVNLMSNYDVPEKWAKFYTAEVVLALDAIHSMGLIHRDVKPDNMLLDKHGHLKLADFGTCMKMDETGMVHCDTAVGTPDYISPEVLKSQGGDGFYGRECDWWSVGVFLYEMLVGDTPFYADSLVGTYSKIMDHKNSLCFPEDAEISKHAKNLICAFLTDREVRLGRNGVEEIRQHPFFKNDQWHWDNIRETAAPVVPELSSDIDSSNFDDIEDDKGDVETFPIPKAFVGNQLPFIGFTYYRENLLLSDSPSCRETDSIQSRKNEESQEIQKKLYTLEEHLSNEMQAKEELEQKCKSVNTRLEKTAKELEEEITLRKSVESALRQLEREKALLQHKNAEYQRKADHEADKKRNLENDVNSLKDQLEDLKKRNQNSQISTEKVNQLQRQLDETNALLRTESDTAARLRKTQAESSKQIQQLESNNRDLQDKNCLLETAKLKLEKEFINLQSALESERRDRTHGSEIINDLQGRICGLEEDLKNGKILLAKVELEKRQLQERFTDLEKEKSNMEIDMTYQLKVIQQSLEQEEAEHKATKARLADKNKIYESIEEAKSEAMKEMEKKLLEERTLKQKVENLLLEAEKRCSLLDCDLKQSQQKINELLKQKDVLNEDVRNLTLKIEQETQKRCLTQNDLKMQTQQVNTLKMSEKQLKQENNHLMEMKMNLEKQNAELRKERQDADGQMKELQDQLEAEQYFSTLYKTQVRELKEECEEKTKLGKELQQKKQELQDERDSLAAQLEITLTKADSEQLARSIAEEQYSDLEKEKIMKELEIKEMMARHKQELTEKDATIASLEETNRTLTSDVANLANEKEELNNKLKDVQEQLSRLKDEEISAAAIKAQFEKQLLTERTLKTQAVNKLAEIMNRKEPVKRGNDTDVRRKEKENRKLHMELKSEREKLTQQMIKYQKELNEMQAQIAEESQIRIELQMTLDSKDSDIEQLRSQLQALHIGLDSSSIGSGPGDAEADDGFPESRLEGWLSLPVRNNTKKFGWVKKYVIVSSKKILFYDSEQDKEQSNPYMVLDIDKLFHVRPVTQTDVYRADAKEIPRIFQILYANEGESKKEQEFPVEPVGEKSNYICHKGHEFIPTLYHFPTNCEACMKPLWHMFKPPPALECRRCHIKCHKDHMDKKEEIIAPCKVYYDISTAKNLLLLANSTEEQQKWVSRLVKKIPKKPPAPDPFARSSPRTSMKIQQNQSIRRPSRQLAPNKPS", "test": "ROCK assay (Caliper LABCHIP peptide phosphorylation)", "type": "biochemical", "details": "5 μM ATP, 1.5 μM peptide substrate", "method": "The effectiveness of compounds of the present invention as ROCK inhibitors can be determined in a 30 μL assay containing 20 mM HEPES, pH 7.5, 20 mM MgCl2, 0.015% Brij-35, 4 mM DTT, 5 μM ATP and 1.5 μM peptide substrate (FITC-AHA-AKRRRLSSLRA-OH) (SEQ ID No. 1). Compounds were dissolved in DMSO so that the final concentration of DMSO was <2%, and the reaction was initiated with Rho kinase variants. After incubation, the reaction was terminated by the addition of EDTA and the phosphorylated and non-phosphorylated peptides separated using a LABCHIP® 3000 Reader (Caliper Life Sciences). […] Compounds were tested in dose-response format, and the inhibition of kinase activity was calculated at each concentration of compound. The inhibition data were fit using a curve-fitting program to determine the IC50; i.e., the concentration of compound required to inhibit 50% of kinase activity. Representative Examples were tested in the ROCK assay described above and found having ROCK inhibitory activity. A range of ROCK inhibitory activity (IC50 values) of ≤50 μM (50000 nM) was observed. Table A below lists the ROCK IC50 values measured for the following examples.", "units": {"IC50": "nM"}}
{"compound": "NC(=O)c1cccnc1O[C@H]1C[C@]2(C1)C[C@H](N1C(=O)NC(CC3CCN(C(=O)OCc4ccccc4)CC3)C1=O)C2", "note": "(stereo partly drawn) [Example 98, 2-(((αR)-6-(2,5-dioxo-4-(N-benzyloxycarbonyl-piperidin-4-ylmethyl)imidazolidin-1-yl)spiro[3.3]heptan-2-yl)oxy)nicotinamide]", "IC50": 52}
{"compound": "[H][C@]1(Oc2ncccc2C(N)=O)C[C@]2(C[C@@H](N3C(=O)N[C@@H](Cc4ccccc4)C3=O)C2)C1", "note": "(stereo partly drawn) [Example 24]", "IC50": 197}
{"compound": "CC(C)CCC1NC(=O)N([C@H]2C[C@@]3(C[C@H](Oc4ncccc4C(N)=O)C3)C2)C1=O", "note": "(stereo partly drawn) [Example 54, 2-{[(αR)-6-[4-(3-methylbutyl)-2,5-dioxoimidazolidin-1-yl]spiro[3.3]-heptan-2-yl]oxy}-pyridine-3-carbox-amide]", "IC50": 186}
{"compound": "NC(=O)c1cccnc1O[C@H]1C[C@]2(C1)C[C@H](N1C(=O)NC(CC3CCN(C(=O)c4ccccc4)CC3)C1=O)C2", "note": "(stereo partly drawn) [Example 101, 2-(((αR)-6-(2,5-dioxo-4-(N-benzoylpiperidin-4-ylmethyl)imidazolidin-1-yl)spiro[3.3]heptan-2-yl)oxy)nicotinamide]", "IC50": 146}
{"compound": "NC(=O)c1cccnc1O[C@H]1C[C@]2(C1)C[C@H](N1C(=O)NC(CC3CCCCC3)C1=O)C2", "note": "(single isomer, unassigned) [Example 2, 2-{[(αR)-6-[4-(cyclohexyl-methyl)-2,5-dioxoimidazol-idin-1-yl]spiro-[3.3]heptan-2-yl]-oxy}pyridine-3-carboxamide]", "IC50": 8}
{"compound": "NC(=O)c1cccnc1O[C@H]1C[C@]2(C1)C[C@H](N1C(=O)NC(CCCS(N)(=O)=O)C1=O)C2", "note": "(stereo partly drawn) [Example 66, 2-{[(αR)-6-[2,5-dioxo-4-(3-sulfam-oylpropyl)imidazol-idin-1-yl]spiro-[3.3]heptan-2-yl]-oxy}pyridine-3-carboxamide]", "IC50": 1550}
{"compound": "NC(=O)c1cccnc1O[C@H]1C[C@]2(C1)C[C@H](N1C(=O)NC(CC(C(F)(F)F)C(F)(F)F)C1=O)C2", "note": "(single isomer, unassigned) [Example 47]", "IC50": 50}
{"compound": "CC(C)(O)CCC1NC(=O)N([C@H]2C[C@@]3(C[C@H](Oc4ncccc4C(N)=O)C3)C2)C1=O", "note": "(stereo partly drawn) [Example 62, 2-{[(αR)-6-[4-(3-hydroxy-3-methyl-butyl)-2,5-dioxo-imidazolidin-1-yl]-spiro[3.3]heptan-2-yl]oxy}pyridine-3-carboxamide]", "IC50": 421}
{"compound": "[H][C@]1(Oc2ncccc2C(N)=O)C[C@]2(C[C@@H](N3C(=O)N[C@@H](CC(C)C)C3=O)C2)C1", "note": "(stereo partly drawn) [Example 1]", "IC50": 8}
{"compound": "NC(=O)c1cccnc1O[C@H]1CC2(C1)C[C@H](N1C(=O)N[C@@H](CC3CCC(NC(=O)OCc4ccccc4)CC3)C1=O)C2", "note": "(stereo partly drawn) [Example 97]", "IC50": 28}
{"compound": "CC(C)(CC1NC(=O)N([C@H]2C[C@@]3(C[C@H](Oc4ncccc4C(N)=O)C3)C2)C1=O)c1ccccc1", "note": "(stereo partly drawn) [Example 94, 2-(((αR)-6-(2,5-dioxo-4-(2-phenyl-2-methylpropyl)imidazolidin-1-yl)spiro[3.3]heptan-2-yl)oxy)nicotinamide]", "IC50": 27}
{"compound": "[H][C@]1(Oc2ncccc2C(N)=O)C[C@@]2(C[C@H](N3C(=O)C[C@H](CCc4ccccc4)NC3=O)C2)C1", "note": "(stereo partly drawn) [Example 74]", "IC50": 75}
{"compound": "NC(=O)c1cccnc1O[C@H]1C[C@]2(C1)C[C@H](N1C(=O)NC(CCc3ccccc3)C1=O)C2", "note": "(single isomer, unassigned) [Example 5, 2-{[(αR)-6-[2,5-dioxo-4-(2-phenylethyl)-imidazolidin-1-yl]spiro[3.3]-heptan-2-yl]oxy}-pyridine-3-carboxamide]", "IC50": 25}
{"compound": "NC(=O)c1cccnc1O[C@H]1C[C@]2(C1)C[C@H](N1C(=O)NC(CCc3ccccc3)C1=O)C2", "note": "(single isomer, unassigned) [Example 12, 2-{[(αR)-6-(4-(2-phenylethyl)-2,5-dioxoimidazol-idin-1-yl)spiro-[3.3]heptan-2-yl]oxy}pyridine-3-carboxamide]", "IC50": 270}
{"compound": "NC(=O)c1cccnc1O[C@H]1C[C@]2(C1)C[C@H](N1C(=O)NC3(CCCC3)C1=O)C2", "note": "(stereo partly drawn) [Example 8, 2-{[(αR)-6-{2,4-dioxo-1,3-diaza-spiro[4.4]nonan-3-yl}spiro[3.3]-heptan-2-yl]oxy}-pyridme-3-carbox-amide]", "IC50": 190}
{"compound": "[H][C@]1(Oc2ncccc2C(N)=O)C[C@]2(C[C@@H](N3C(=O)CN(c4cccc(Cl)c4)C3=O)C2)C1", "note": "(stereo partly drawn) [Example 80, 2-(((aR)-6-(3-(3-chlorophenyl)-2,5-dioxoimidazolidin-1-yl)spiro[3.3]heptan-2-yl)oxy)nicotinamide]", "IC50": 2}
{"compound": "CC(CCC1NC(=O)N([C@H]2C[C@@]3(C[C@H](Oc4ncccc4C(N)=O)C3)C2)C1=O)C(F)(F)F", "note": "(stereo partly drawn) [Example 71, 2-{[(αR)-6-[2,5-dioxo-4-(4,4,4-trifluoro-3-methyl-butyl)imidazolidin-1-yl]spiro[3.3]-heptan-2-yl]oxy}-pyridine-3-carbox-amide]", "IC50": 36}
{"compound": "CC(C)(O)CC1NC(=O)N([C@H]2C[C@@]3(C[C@H](Oc4ncccc4C(N)=O)C3)C2)C1=O", "note": "(stereo partly drawn) [Example 58, 2-{[(αR)-6-[4-(2-hydroxy-2-methyl-propyl)-2,5-dioxo-imidazolidin-1-yl]-spiro[3.3]heptan-2-yl]oxy}pyridine-3-carboxamide]", "IC50": 289}
{"compound": "NC(=O)c1cccnc1O[C@H]1C[C@]2(C1)C[C@H](N1C(=O)NC(Cc3c[nH]cn3)C1=O)C2", "note": "(stereo partly drawn) [Example 22]", "IC50": 2950}
{"compound": "NC(=O)c1cccnc1O[C@H]1C[C@]2(C1)C[C@H](N1C(=O)NC(CC3CC4CCC3C4)C1=O)C2", "note": "(stereo partly drawn) [Example 69, 2-{[(αR)-6-[4-({bicyclo[2.2.1]-heptan-2-yl]}-methyl)-2,5-dioxo-imidazolidin-1-yl]-spiro[3.3]heptan-2-yljoxy}pyridine-3-carboxamide]", "IC50": 16}
{"compound": "COC[C@@H]1NC(=O)N([C@H]2C[C@@]3(C[C@H](Oc4ncccc4C(N)=O)C3)C2)C1=O", "note": "(stereo partly drawn) [Example 36, 2-{[(αR)-6-[(4S)-4-(methoxymethyl)-2,5-dioxoimidazol-idin-1-yl]spiro-[3.3]heptan-2-yl]-oxy}pyridine-3-carboxamide]", "IC50": 2390}
{"compound": "CC(C)(C)OCC1NC(=O)N([C@H]2C[C@@]3(C[C@H](Oc4ncccc4C(N)=O)C3)C2)C1=O", "note": "(stereo partly drawn) [Example 9, 2-{[(αR)-6-(4-tert-butoxymethyl-2,5-dioxoimidazolidin-1-yl)spiro[3.3]-heptan-2-yl]oxy}-pyridine-3-carbox-amide]", "IC50": 219}
{"compound": "[H][C@]1(Oc2ncccc2C(N)=O)C[C@]2(C[C@@H](N3C(=O)NC(CCC4CC4)C3=O)C2)C1", "note": "(stereo partly drawn) [Example 37]", "IC50": 44}
{"compound": "[H][C@]1(Oc2nc(OC)ccc2C(N)=O)C[C@]2(C[C@@H](N3C(=O)N[C@@H](CC(C)C(F)(F)F)C3=O)C2)C1", "note": "(stereo partly drawn) [Example 102]", "IC50": 5}
{"compound": "NC(=O)c1cccnc1OC1CC2(C1)CC(N1C(=O)CN(c3ccccc3OC(F)F)C1=O)C2", "note": "(stereo not drawn) [Example 81, 2-(((αR)-6-(3-(2-(difluoromethoxy)phenyl)-2,5-dioxoimidazolidin-1-yl)spiro[3.3]heptan-2-yl)oxy)nicotinamide]", "IC50": 3}
{"compound": "NC(=O)c1cccnc1O[C@H]1C[C@]2(C1)C[C@H](N1C(=O)NC(Cc3ccncc3)C1=O)C2", "note": "(stereo partly drawn) [Example 73, 2-{[(αR)-6-{2,5-dioxo-4-[(pyridin-4-yl)methyl]-imidazolidin-1-yl}-spiro[3.3]heptan-2-yl]oxy}pyridine-3-carboxamide]", "IC50": 2280}
{"compound": "NC(=O)c1cccnc1O[C@H]1C[C@]2(C1)C[C@H](N1C(=O)N[C@@H](CCOCc3ccccc3)C1=O)C2", "note": "(stereo partly drawn) [Example 33, 2-{[(αR)-6-[(4S)-4-[2-(benzyloxy)-ethyl]-2,5-dioxo-imidazolidin-1-yl]-spiro[3.3]heptan-2-yl]oxy}pyridine-3-carboxamide]", "IC50": 426}
{"compound": "NC(=O)c1cccnc1O[C@H]1C[C@]2(C1)C[C@H](N1C(=O)CN(c3ccc(Cc4ccccc4)cc3)C1=O)C2", "note": "(stereo partly drawn) [Example 84, 2-(((αR)-6-(3-(4-benzylphenyl)-2,5-dioxoimidazolidin-1-yl)spiro[3.3]heptan-2-yl)oxy)nicotinamide]", "IC50": 17}
{"compound": "NC(=O)c1cccnc1O[C@H]1C[C@]2(C1)C[C@H](N1C(=O)NC(CCCC(F)(F)F)C1=O)C2", "note": "(single isomer, unassigned) [Example 60, 2-{[(αR)-6-[2,5-dioxo-4-(4,4,4-trifluorobutyl)-imidazolidin-1-yl]-spiro[3.3]heptan-2-yl]oxy}pyridine-3-carboxamide]", "IC50": 311}
{"compound": "NC(=O)c1cccnc1O[C@H]1C[C@]2(C1)C[C@H](N1C(=O)NC(CC3CCCC3)C1=O)C2", "note": "(single isomer, unassigned) [Example 52]", "IC50": 160}
{"compound": "NC(=O)c1cccnc1O[C@H]1C[C@]2(C1)C[C@H](N1C(=O)C[C@H](c3cccc(Br)c3)NC1=O)C2", "note": "(stereo partly drawn) [Example 77, 2-{[(αR)-6-[(4R)-4-(3-bromophenyl)-2,6-dioxo-1,3-diazinan-1-yl]-spiro[3.3]heptan-2-yl]oxy}pyridine-3-carboxamide]", "IC50": 614}
{"compound": "CC(C[C@H]1NC(=O)N([C@H]2C[C@@]3(C[C@H](Oc4ncccc4C(N)=O)C3)C2)C1=O)c1ccccc1", "note": "(stereo partly drawn) [Example 96, 2-(((αR)-6-((R)-2,5-dioxo-4-(2-phenyl-propyl)imidazolidin-1-yl)spiro[3.3]heptan-2-yl)oxy)nicotinamide]", "IC50": 264}
{"compound": "[H][C@]1(Oc2ncccc2C(N)=O)C[C@]2(C[C@@H](N3C(=O)NC(CC(C)Cc4ccccc4)C3=O)C2)C1", "note": "(stereo partly drawn) [Example 91, 2-(((aR)-6-(4-(2-methyl-3-phenylpropyl)-2,5-dioxoimidazolidin-1-yl)spiro[3.3]heptan-2-yl)oxy)nicotinamide]", "IC50": 29}
